Experimental data published in ChEMBL document CHEMBL1201862, “PubChem BioAssay data set” (2004).
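Method: 48-hour compound exposure of cells in 96-well plates, five concentrations, linear interpolation of endpoints. Here, GI50 denotes the concentration required for 50% inhibition of growth.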 Calls of active or inactive are those of the source. No stated cut-off is given here; in the data, active = GI50 up to about 1.1 µM and inactive = higher.

Key:
Assay in all cases: DTP human tumour cell line panel, 48 h
UACC-257 = system: UACC-257
Malme-3M = system: Malme-3M
K562 = system: K562
NCI-H23 = system: NCI-H23
HCT-15 = system: HCT-15
NCI-H226 = system: NCI-H226
KM12 = system: KM12
COLO 205 = system: COLO 205
SF-268 = system: SF-268
SF-539 = system: SF-539
NCI-H460 = system: NCI-H460
A498 = system: A498
RPMI-8226 = system: RPMI-8226
MDA-N = system: MDA-N
EKVX = system: EKVX
PC-3 = system: PC-3
SK-MEL-2 = system: SK-MEL-2
OVCAR-3 = system: OVCAR-3
Hs-578T = system: Hs-578T
HL-60 = system: HL-60

Structure (SMILES)	GI50 (UACC-257)	GI50 (Malme-3M)	GI50 (K562)	GI50 (NCI-H23)	GI50 (HCT-15) [µM]	GI50 (NCI-H226)	GI50 (KM12)	GI50 (COLO 205)	GI50 (SF-268)	GI50 (SF-539)	GI50 (NCI-H460)	GI50 (A498)	GI50 (RPMI-8226)	GI50 (MDA-N)	GI50 (EKVX)	GI50 (PC-3)	GI50 (SK-MEL-2)	GI50 (OVCAR-3)	GI50 (Hs-578T)	GI50 (HL-60)
C=C(C(=O)OC)[C@@H]1C[C@@H](OC(C)=O)C2=C[C@H](C[C@@]3(C)O[C@@H]3C3=CC(C)=C(O3)[C@H]1OC(C)=O)OC2=O [BIPINNATIN I]	18.2 µM (inactive)	13.3 µM (inactive)	6.84 µM (inactive)	14.5 µM (inactive)	17.5	90.8 µM (inactive)	19.8 µM (inactive)	10.8 µM (inactive)	36.1 µM (inactive)	31.4 µM (inactive)	23.6 µM (inactive)	16.9 µM (inactive)	5.75 µM (inactive)	19.4 µM (inactive)	18.4 µM (inactive)	25.2 µM (inactive)	31 µM (inactive)	–	–	–
Cc1csc2nc3[nH]ncc3c(=O)n12	> 100 µM (inactive)	> 100 µM (inactive)	> 100 µM (inactive)	> 100 µM (inactive)	> 100	40.6 µM (inactive)	> 100 µM (inactive)	> 100 µM (inactive)	> 100 µM (inactive)	> 100 µM (inactive)	> 100 µM (inactive)	–	> 100 µM (inactive)	> 100 µM (inactive)	> 100 µM (inactive)	> 100 µM (inactive)	> 100 µM (inactive)	> 100 µM (inactive)	28.4 µM (inactive)	–
CC1CCC(C(C)C2C(O)CC3C4CC=C5CC(O)CCC5(C)C4CCC32C)NC1 (stereo not drawn)	34.5 µM (inactive)	20.6 µM (inactive)	39.2 µM (inactive)	36.9 µM (inactive)	44	70.8 µM (inactive)	–	> 100 µM (inactive)	> 100 µM (inactive)	34.2 µM (inactive)	48 µM (inactive)	> 100 µM (inactive)	–	–	> 100 µM (inactive)	26.9 µM (inactive)	> 100 µM (inactive)	–	35.9 µM (inactive)	17.3 µM (inactive)
O=c1c2c(c1=O)C1(SCCCS1)c1cc(Cl)ccc1O2	> 100 µM (inactive)	> 100 µM (inactive)	> 100 µM (inactive)	> 100 µM (inactive)	> 100	> 100 µM (inactive)	> 100 µM (inactive)	> 100 µM (inactive)	> 100 µM (inactive)	> 100 µM (inactive)	> 100 µM (inactive)	> 100 µM (inactive)	> 100 µM (inactive)	> 100 µM (inactive)	> 100 µM (inactive)	> 100 µM (inactive)	> 100 µM (inactive)	> 100 µM (inactive)	–	> 100 µM (inactive)
CCCCNC(=S)N/C=C1\C(=O)Nc2ccccc2C1=O	> 10 µM (inactive)	> 10 µM (inactive)	> 10 µM (inactive)	> 10 µM (inactive)	> 10	> 10 µM (inactive)	> 10 µM (inactive)	> 10 µM (inactive)	> 10 µM (inactive)	> 10 µM (inactive)	> 10 µM (inactive)	> 10 µM (inactive)	> 10 µM (inactive)	–	> 10 µM (inactive)	> 10 µM (inactive)	–	> 10 µM (inactive)	–	> 10 µM (inactive)
O=C(n1[nH]c(=O)n(-c2ccc([N+](=O)[O-])cc2)c1=O)C(Cl)(Cl)Cl	> 75 µM (inactive)	> 75 µM (inactive)	> 75 µM (inactive)	> 75 µM (inactive)	> 75	> 75 µM (inactive)	> 75 µM (inactive)	> 75 µM (inactive)	> 75 µM (inactive)	–	> 75 µM (inactive)	–	> 75 µM (inactive)	> 75 µM (inactive)	> 75 µM (inactive)	> 75 µM (inactive)	> 75 µM (inactive)	> 75 µM (inactive)	> 75 µM (inactive)	> 75 µM (inactive)
C[C@]1(S(=O)(=O)c2ccccc2)C[C@H]2N(Cc3ccccc3)[C@@H]1CCC21OCCO1	22.3 µM (inactive)	> 100 µM (inactive)	> 100 µM (inactive)	60.5 µM (inactive)	63.1	–	58.2 µM (inactive)	50.5 µM (inactive)	> 100 µM (inactive)	–	67.9 µM (inactive)	–	–	> 100 µM (inactive)	> 100 µM (inactive)	70.5 µM (inactive)	> 100 µM (inactive)	> 100 µM (inactive)	> 100 µM (inactive)	13.6 µM (inactive)
CCOC(=O)c1[nH]c2cccc3c2c1CC(Br)C3=O (stereo not drawn)	14.4 µM (inactive)	14.5 µM (inactive)	–	17.6 µM (inactive)	3.72	17.4 µM (inactive)	15.8 µM (inactive)	14 µM (inactive)	15.6 µM (inactive)	16.4 µM (inactive)	22.3 µM (inactive)	17.7 µM (inactive)	5.02 µM (inactive)	11.6 µM (inactive)	17.5 µM (inactive)	15.1 µM (inactive)	–	13.2 µM (inactive)	–	2.94 µM (inactive)
